The target of one experiment is hCD1d (Homo sapiens, UniProt P15813+P61769). Description: Nano differential scanning fluorimetry (nanoDSF) thermal stability. The experiment is classed as binding. The note with it: for ΔTm aveage: Figure 5C, nanoDSF, hCD1d with detergent; for ΔT m (NanoDSF): T m difference between hCD1d in the absence and presence of 1000 μM detergent, 1 μM hCD1d; for ΔT m, detergent class summary: approximate; for detergent concentration at which hCD1d appeared to unfold: disappearance of inflection point in ∂(F350/F330)/∂T; for ΔT m (nanoDSF), lipid/hCD1d: absence vs maximum concentration of detergent, 1 μM endo/hCD1d (Figure S10). More on the design: TEV protease cleavage site ENLYFQS (C); BirA biotinylation site (C); His7 (C); made in house; host or cells: TurboCHO cells (GenScript). An excerpt:
We next sought to probe the ability of each detergent to influence the thermal stability of hCD1d. NanoDSF has been previously applied to measure lipid/detergent‐induced thermal stability changes in target proteins (Cecchetti et al., [2021]; Kotov et al., [2019]), but has not yet been applied to ligand binding to CD1. NanoDSF measures the ITF ratio (F 350 nm/F 330 nm) of proteins as a function of temperature to extract thermodynamic parameters. Given that ligand binding typically shifts the melting temperature of proteins, the effect of a ligand on protein stability can be approximated with the ΔT m value (the difference in T m with and without excess ligand) (Cecchetti et al., [2021]; Kotov et al., [2019]). We found all detergents tested to destabilize hCD1d, albeit to different degrees, with ΔT m values ranging from −0.8 to −14.2°C (Figures 4, S4, and Table 1).
Nano differential scanning fluorometry (nanoDSF) was performed using a Prometheus NT.48 (NanoTemper Technologies). Purified hCD1d at 1 μM in 1X PBS pH 7.4 was loaded into nanoDSF grade standard capillaries (NanoTemper Technologies) and exposed to temperatures ranging from 20 to 95°C with a thermal ramping rate of 1°C/min. Excitation power was set to 50%. The ratio of intrinsic fluorescence emission (F 350 nm/F 330 nm) was monitored. Melting temperatures (T m) were obtained from fitting the first derivative plots in the Prometheus NT.48 Software. The experiments were performed in triplicate, and data are presented as the mean ± standard deviation (n = 3).
For experiments with most detergents, prior to data acquisition, hCD1d and detergent or lipid samples were incubated at 37°C overnight (~12 h) to simulate in vitro and in vivo loading conditions. […] For 18:1 LPC experiments: nanoDSF spectra were acquired in the absence and presence of 18:1 LPC in 1X PBS pH 7.4 at 25°C.
For orientation: Differential scanning fluorimetry follows unfolding on heating by fluorescence.

Another experiment concerns CD1c. More on the design: method as in Mansour et al., 2016. The note with it: ref Mansour et al., 2016; cited from earlier work.
The target of experiment [1] is T1, CSP 319‐328/HLA‐B*08:01/hβ2M complex (Homo sapiens, UniProt P01889, A93T/A95T/D138N/E176V/E187T/K202T/Q94N/R180D/S35A/V36M/Y33D/Y91F).
T1 construct: made in house
Description: nanoDSF with peptide/HLA complex. The experiment is classed as binding. The conditions noted are these: for ΔT m (nanoDSF), peptide/HLA: absence vs maximum concentration of detergent, 1 μM peptide/HLA; for nanoDSF melting temperature of peptide/HLA: replicates. The source says: To determine whether detergent effects were specific to hCD1d, we performed analogous ITF, MST, and nanoDSF experiments with a peptide/HLA complex. HLA‐B*08:01, presenting the Plasmodium falciparum derived peptide […] ([…]), was selected as a representative model system since the peptide antigen contains hydrophilic solvent‐exposed residues in the antigen‐binding groove (Frooman et al., [2025]). Although structurally similar to that of hCD1d, HLA‐B*08:01 shares low sequence identity (Figure S10a). […] By nanoDSF, ODG caused minimal destabilization of either complex (ΔT m≈−0.2 to −0.8°C; Figure S10f). […] We posit that lipid‐specific unloading effects of detergent are due to either hydrophobic residues in the antigen binding groove (detergent‐CD1d interactions) and/or the hydrophobic nature of the lipid antigen (detergent‐lipid interactions).
For comparison with peptide/HLA molecules, we prepared recombinant CSP 319‐328/HLA‐B*08:01/hβ2M complex using in vitro refolding methods fully described previously (Frooman et al., [2025]). The peptide sequence for CSP 319–328 is […]. This peptide was chosen since it contains Lys, Gln, and Asp residues predicted to be solvent‐exposed in the HLA‐B*08:01 binding groove (Frooman et al., [2025]).
NanoDSF experiments with peptide/HLA molecules and detergents were performed using an analogous protocol.

The text below walks through data of publication PMC12720774, “Detergents alter the stability and lipid binding properties of the CD1d immunoreceptor” (Protein Science : A Publication of the Protein Society, 2025).

Where “and” joins values, the source holds several entries; their conditions need not be identical. Equal values may be shown once. Where a name gives a salt, the structure may show the parent alone. Bounds are passed on as bounds.

Chain of hCD1d (P61769+P15813 fused): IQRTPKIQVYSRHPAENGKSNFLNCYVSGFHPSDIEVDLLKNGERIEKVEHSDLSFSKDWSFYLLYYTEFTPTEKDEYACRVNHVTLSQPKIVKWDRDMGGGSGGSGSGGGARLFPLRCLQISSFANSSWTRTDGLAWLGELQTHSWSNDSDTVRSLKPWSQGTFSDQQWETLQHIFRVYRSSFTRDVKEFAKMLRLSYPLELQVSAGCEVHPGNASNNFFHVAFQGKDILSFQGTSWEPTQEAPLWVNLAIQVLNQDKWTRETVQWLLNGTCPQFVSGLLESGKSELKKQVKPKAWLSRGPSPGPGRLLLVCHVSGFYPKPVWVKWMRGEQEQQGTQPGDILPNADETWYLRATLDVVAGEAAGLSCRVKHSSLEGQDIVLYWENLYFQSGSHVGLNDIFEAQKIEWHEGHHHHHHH

Regarding `CCCCCCCCCCCCCCCC[N+](C)(C)C` [CTAB, hexadecyltrimethylammonium bromide], at hCD1d, the ΔTm aveage is -14.17 °C; the “ΔT m (NanoDSF)” value is −14.2 ± 0.8 °C; the “ΔT m, detergent class summary” value is −12 to −15 °C; the “detergent concentration at which hCD1d appeared to unfold” value (“detergent concentration … to unfold” below) was over 200 µM.
Turning to `C[C@H](CCC(=O)NCCC[N+](C)(C)CCCS(=O)(=O)[O-])[C@H]1CC[C@H]2[C@@H]3[C@H](O)C[C@@H]4C[C@H](O)CC[C@]4(C)[C@H]3C[C@H](O)[C@]12C` [CHAPS, 3‐((3‐cholamidopropyl) dimethylammonio)‐1‐propanesulfonate], the “stripping of lipid antigens from CD1c (in words)” value with CD1c was “not”. Also, on hCD1d, the ΔTm aveage is -1.3 °C; the “ΔT m (NanoDSF)” value was −1.3 ± 0.4 °C; the “ΔT m, detergent class summary” value was −1 to −2 °C.
In the case of `CCCCCCCCCCCC[N+](C)(C)[O-]` [LDAO, lauryldimethylamine‐N‐oxide], at hCD1d, the ΔTm aveage is -13.43 °C; the “ΔT m (NanoDSF)” value was −13.4 ± 0.1 °C; the “ΔT m, detergent class summary” value is −12 to −15 °C; the “detergent concentration … to unfold” value is over 200 µM.
With Tween 80, at hCD1d, the ΔTm aveage is -9.7 °C; the “ΔT m (NanoDSF)” value was -9.7 ± 0.4 °C; the “ΔT m, detergent class summary” value is −8 to −10 °C.
On to `CCCCCCCCO[C@@H]1O[C@H](CO)[C@@H](O)[C@H](O)[C@H]1O` [ODG, n‐octyl‐β‐D‐glucopyranoside], for which the “ΔT m (nanoDSF), peptide/HLA” value in experiment [1] was −0.2 to −0.8 °C. Besides, the “nanoDSF melting temperature of peptide/HLA” value is 55.47 and 55.54 and 54.62 in experiment [1] (peptide/HLA with ODG, concentration 1.495 (unit not given)); 55.33 and 55.34 and 55.32 in experiment [1] (peptide/HLA with ODG, concentration 2.991 (unit not given)); 55.24 and 55.48 and 55.35 in experiment [1] (peptide/HLA with ODG, concentration 5.981 (unit not given)); 55.41 and 55.18 and 55.09 in experiment [1] (peptide/HLA with ODG, concentration 11.96 (unit not given)); 55.51 and 54.95 and 55.4 in experiment [1] (peptide/HLA with ODG, concentration 23.93 (unit not given)); 55.44 and 54.77 and 55.24 in experiment [1] (peptide/HLA with ODG, concentration 47.85 (unit not given)). In addition, the “nanoDSF melting temperature of peptide/HLA” value in experiment [1] (peptide/HLA with ODG, concentration 95.7 (unit not given)) is 55.2 and 55.36 and 55.21; in experiment [1] (peptide/HLA with ODG, concentration 191.4 (unit not given)) it was 55.5 and 55.26 and 55.22; in experiment [1] (peptide/HLA with ODG, concentration 382.8 (unit not given)), 55.54 and 55.43 and 55.19; in experiment [1] (peptide/HLA with ODG, concentration 765.6 (unit not given)) it was 55.29 and 55.05 and 54.95; in experiment [1] (peptide/HLA with ODG, concentration 1531 (unit not given)), 55.13 and 55.03 and 54.92; in experiment [1] (peptide/HLA with ODG, concentration 3063 (unit not given)), 54.91 and 54.34 and 54.94. The “nanoDSF melting temperature of peptide/HLA” value in experiment [1] (peptide/HLA with ODG, concentration 6125 (unit not given)) is 53.87 and 53.91; in experiment [1] (peptide/HLA with ODG, concentration 12500 (unit not given)) it was 51.99 and 52.51 and 52.34; in experiment [1] (peptide/HLA with ODG, concentration 25000 (unit not given)), 50.57 and 50.47 and 50.7; in experiment [1] (peptide/HLA with ODG, concentration 50000 (unit not given)), 50.26 and 49.92 and 50.62. Also, the ΔTm aveage at hCD1d was -0.83 °C. On hCD1d, the “ΔT m (NanoDSF)” value was −0.8 ± 0.4 °C. Besides, on hCD1d, the “ΔT m (nanoDSF), lipid/hCD1d” value is −0.2 to −0.8 °C. For the same compound, on hCD1d, the “ΔT m, detergent class summary” value was −1 to −2 °C.
Take Tween 20: in experiment [1], the “ΔT m (nanoDSF), peptide/HLA” value is “≈ −0.3 °C”. Also, the “nanoDSF melting temperature of peptide/HLA” value was 55.19 and 55.32 and 55.37 in experiment [1] (peptide/HLA with Tween 20, concentration 0.030518 (unit not given)); 55.29 and 55.45 and 55.24 in experiment [1] (peptide/HLA with Tween 20, concentration 0.061035 (unit not given)); 55.51 and 55.26 and 55.3 in experiment [1] (peptide/HLA with Tween 20, concentration 0.12207 (unit not given)); 55.15 and 55.36 and 55.47 in experiment [1] (peptide/HLA with Tween 20, concentration 0.244141 (unit not given)); 55.37 and 55.28 and 55.18 in experiment [1] (peptide/HLA with Tween 20, concentration 0.488281 (unit not given)); 55.33 and 55.35 and 55.37 in experiment [1] (peptide/HLA with Tween 20, concentration 0.976563 (unit not given)). The “nanoDSF melting temperature of peptide/HLA” value is 55.37 and 55.15 in experiment [1] (peptide/HLA with Tween 20, concentration 1.95312 (unit not given)); 55.29 and 55.17 and 55.23 in experiment [1] (peptide/HLA with Tween 20, concentration 3.90625 (unit not given)); 55.43 and 55.31 and 55.36 in experiment [1] (peptide/HLA with Tween 20, concentration 7.8125 (unit not given)); 55.24 and 55.22 and 55.41 in experiment [1] (peptide/HLA with Tween 20, concentration 15.625 (unit not given)); 55.63 and 55.25 and 55.23 in experiment [1] (peptide/HLA with Tween 20, concentration 31.25 (unit not given)); 55.32 and 55.31 and 55.25 in experiment [1] (peptide/HLA with Tween 20, concentration 62.5 (unit not given)). Moreover, the “nanoDSF melting temperature of peptide/HLA” value in experiment [1] (peptide/HLA with Tween 20, concentration 125 (unit not given)) is 55.13 and 55.18 and 55.19; in experiment [1] (peptide/HLA with Tween 20, concentration 250 (unit not given)), 55.22 and 55.06 and 55.24; in experiment [1] (peptide/HLA with Tween 20, concentration 500 (unit not given)), 54.35 and 55.14 and 54.93; in experiment [1] (peptide/HLA with Tween 20, concentration 1000 (unit not given)), 55.13 and 54.89 and 54.93. The “stripping of lipid antigens from CD1c (in words)” value with CD1c is “could efficiently strip lipid antigens away”. Also, at hCD1d, the ΔTm aveage is -8.33 °C. Besides, the “ΔT m (NanoDSF)” value on hCD1d was -8.3 ± 0.2 °C. On hCD1d, the “ΔT m (nanoDSF), lipid/hCD1d” value was “≈ −8.3 °C”. Moreover, the “ΔT m, detergent class summary” value on hCD1d was −8 to −10 °C.
As to `C[C@H](CCC(=O)O)[C@H]1CC[C@H]2[C@@H]3CC[C@@H]4C[C@H](O)CC[C@]4(C)[C@H]3C[C@H](O)[C@]12C` [Deoxycholate, sodium deoxycholate], at hCD1d, the ΔTm aveage is -10 °C, the “ΔT m (NanoDSF)” value was −10.0 ± 0.3 °C and the “detergent concentration … to unfold” value was over 200 µM. The “ΔT m (NanoDSF)” value at hCD1d (listed as Sodium deoxycholate) is −10.0 ± 0.3 °C.
For `CCCCCCCCCCCCOS(=O)(=O)O` [SDS, sodium dodecyl sulfate], on hCD1d, the ΔTm aveage was -13.07 °C; the “ΔT m (NanoDSF)” value is −13.1 ± 0.7 °C; the “ΔT m, detergent class summary” value was −12 to −15 °C; the “detergent concentration … to unfold” value is over 200 µM.
